Test results from US7179840B2, “Furancarboxamides” (Bayer CropScience AG, priority 2002, dated 2007).

Experiments:
[1] = logP determination by HPLC (reversed-phase C18), acidic range; assay type: physicochemical; settings: pH 2.3, C18, 43° C., 0.1% aqueous phosphoric acid/acetonitrile
Protocol: The logP values given in the Preparation Examples were determined in accordance with EEC Directive 79/831 Annex V.A8 by HPLC (High Performance Liquid Chromatography) using a reversed-phase column (C 18). Temperature: 43° C.
Mobile phases for the determination in the acidic range: 0.1% aqueous phosphoric acid, acetonitrile; linear gradient from 10% acetonitrile to 90% acetonitrile.
Calibration was carried out using unbranched alkan-2-ones (having 3 to 16 carbon atoms) with known logP values (determination of the logP values by the retention times using linear interpolation between two successive alkanones).

Venturia inaequalis = assay: Venturia Test (Apple)/Protective; assay type: in vivo; settings: 240 h, protective, application rate 100 g/ha, evaluation 10 days after inoculation, read-out: Efficacy in %
Protocol: Venturia Test (Apple)/Protective
(§1) To produce a suitable preparation of active compound, 1 part by weight of active compound is mixed with the stated amounts of solvent and emulsifier, and the concentrate is diluted with water to the desired concentration.
To test for protective activity, young plants are sprayed with the preparation of active compound at the stated application rate. After the spray coating has dried on, the plants are inoculated with an aqueous conidia suspension of the apple scab pathogen Venturia inaequalis and then remained in an incubation cabin at about 20° C. and 100% relative atmospheric humidity for 1 day.
The plants are then placed in a greenhouse at about 21° C. and a relative atmospheric humidity of about 90%.
(§2) Evaluation is carried out 10 days after the inoculation. 0% means an efficacy which corresponds to that of the control, whereas efficacy of 100% means that no infection is observed.

Alternaria solani = assay: Alternaria Test (Tomato)/Protective; assay type: in vivo; settings: 48 h, protective, application rate 100 g/ha, evaluation 2 days after inoculation, read-out: Efficacy in %
Protocol: Alternaria Test (Tomato)/Protective
as §1
To test for protective activity, young tomato plants are sprayed with the preparation of active compound at the stated application rate. 1 day after the treatment, the plants are inoculated with an aqueous spore suspension of Alternaria solani. The plants are then placed in an incubation cabin at about 20° C. and 100% relative atmospheric humidity.
Evaluation is carried out 2 days after the inoculation. 0% means an efficacy which corresponds to that of the control, whereas efficacy of 100% means that no infection is observed.

Sphaerotheca fuliginea = assay: Sphaerotheca Test (Cucumber)/Protective; assay type: in vivo; settings: protective, application rate 750 g/ha, evaluation 7 days after inoculation
Protocol: Sphaerotheca Test (Cucumber)/Protective
as §1
To test for protective activity, young cucumber plants are sprayed with the preparation of active compound at the stated application rate. 1 day after the treatment, the plants are inoculated with a spore suspension of Sphaerotheca fuliginea. The plants are then placed in a greenhouse at 70% relative atmospheric humidity and temperature of 23° C.
(§3) Evaluation is carried out 7 days after the inoculation. 0% means an efficacy which corresponds to that of the control, whereas efficacy of 100% means that no infection is observed.

Podosphaera leucotricha = assay: Podosphaera Test (Apple)/Protective; assay type: in vivo; settings: 240 h, protective, application rate 100 g/ha, evaluation 10 days after inoculation, read-out: Efficacy in %
Protocol: Podosphaera Test (Apple)/Protective
as §1
To test for protective activity, young plants are sprayed with the preparation of active compound at the stated application rate. After the spray coating has dried on, the plants are inoculated with an aqueous spore suspension of the apple mildew pathogen Podosphaera leucotricha. The plants are then placed in a greenhouse at about 23° C. and a relative atmospheric humidity of about 70%.
as §2

Pyrenophora teres = Pyrenophora teres Test (Barley)/Protective; assay type: in vivo; settings: protective, application rate 500 g/ha, evaluation 7 days after inoculation
Protocol: Pyrenophora teres Test (Barley)/Protective
as §1
To test for protective activity, young plants are sprayed with the preparation of active compound at the stated application rate. After the spray coating has dried on, the plants are sprayed with a conidia suspension of Pyrenophora teres. The plants remain in an incubation cabin at 20° C. and 100% relative atmospheric humidity for 48 h. The plants are then placed in a greenhouse at a temperature of about 20° C. and a relative atmospheric humidity of about 80%.
as §3

chromatographic logP ([1]; reversed-phase C18 HPLC column) | SMILES | chromatographic logP [1] | pest or weed control at 100 g/ha (Venturia inaequalis) | pest or weed control at 100 g/ha (Alternaria solani) | Efficacy in % (Sphaerotheca fuliginea) | pest or weed control at 100 g/ha (Podosphaera leucotricha) | Efficacy in % (Pyrenophora teres)
– | Cc1occc1C(=O)Nc1ccccc1-c1ccc(Br)cc1 [Example 2] | 3.71 | 100% | 100% | 90% | – | –
– | Cc1occc1C(=O)Nc1ccccc1-c1cc(Cl)cc(Cl)c1 [Example 16] | 3.9 | – | – | 90% | – | –
– | Cc1occc1C(=O)Nc1ccccc1-c1ccc(F)c(F)c1 [Example 8] | 3.22 | 100% | 82% | – | 85% | –
– | Cc1occc1C(=O)Nc1ccccc1-c1ccc(Cl)c(Cl)c1 [Example 15] | 3.73 | 100% | 96% | – | 100% | 90%
– | Cc1occc1C(=O)Nc1ccccc1-c1cccc(Cl)c1 [Example 4] | 3.58 | 100% | 98% | 95% | 100% | –
– | CSc1ccc(-c2ccccc2NC(=O)c2ccoc2C)cc1 [Example 6] | 3.63 | 100% | 95% | – | 92% | –
– | Cc1occc1C(=O)Nc1ccccc1-c1ccc(OC(F)(F)F)cc1 [Example 5] | 3.91 | 100% | 92% | – | 93% | –
– | Cc1occc1C(=O)Nc1ccccc1-c1ccc(Cl)c(F)c1 [Example 9] | 3.43 | 100% | 100% | – | 97% | –
– | Cc1occc1C(=O)Nc1ccccc1-c1ccc(F)c(Cl)c1 [Example 10] | 3.46 | 100% | 95% | – | 100% | –
3.38 | Cc1occc1C(=O)Nc1ccccc1-c1ccc(Cl)cc1F [Example 1, N-(4′-chloro-2′-fluoro-1,1′-biphenyl-2-yl)-2-methyl-3-furamide] | – | – | – | – | – | –
– | Cc1occc1C(=O)Nc1ccccc1-c1ccc(C(F)(F)F)cc1 [Example 3] | 3.53 | 100% | 100% | 100% | 93% | –
